From patent US10168342B2, “Lipid probes and uses thereof” (THE SCRIPPS RESEARCH INSTITUTE, priority 2015, dated 2019)
Like-named read-outs stand apart in the source and are kept apart here.

Assays:
[1] = target: T1, AEA-DA lipid probe targets in Neuro2a cells (Mus musculus, UniProt P54071)
T1 sequence (P54071 40-452): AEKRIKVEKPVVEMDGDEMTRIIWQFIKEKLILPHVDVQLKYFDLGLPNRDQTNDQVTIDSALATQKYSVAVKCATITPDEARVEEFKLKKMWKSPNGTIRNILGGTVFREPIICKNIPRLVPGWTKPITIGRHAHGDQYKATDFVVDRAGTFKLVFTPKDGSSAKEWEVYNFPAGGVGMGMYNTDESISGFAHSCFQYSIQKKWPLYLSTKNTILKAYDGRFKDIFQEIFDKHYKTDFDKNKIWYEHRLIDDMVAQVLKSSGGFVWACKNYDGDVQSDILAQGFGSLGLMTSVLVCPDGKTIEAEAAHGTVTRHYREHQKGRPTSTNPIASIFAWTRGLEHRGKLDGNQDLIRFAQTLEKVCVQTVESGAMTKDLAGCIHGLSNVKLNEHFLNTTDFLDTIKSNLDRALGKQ

[2] = target: T2, AEA-DA lipid probe targets in Neuro2a cells (Mus musculus, UniProt Q922Q8)
T2 sequence (Q922Q8 1-307): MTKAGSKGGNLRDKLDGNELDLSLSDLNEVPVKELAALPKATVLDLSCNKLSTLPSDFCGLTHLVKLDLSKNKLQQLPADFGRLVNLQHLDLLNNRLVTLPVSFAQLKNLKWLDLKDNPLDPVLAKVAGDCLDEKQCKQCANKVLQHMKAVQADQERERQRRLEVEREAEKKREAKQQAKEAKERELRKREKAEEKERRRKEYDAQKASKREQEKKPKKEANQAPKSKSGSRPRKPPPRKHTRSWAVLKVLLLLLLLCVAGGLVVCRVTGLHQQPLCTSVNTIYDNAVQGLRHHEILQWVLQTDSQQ

[3] = target: T3, AEA-DA lipid probe targets in Neuro2a cells (Mus musculus, UniProt P97311)
T3 sequence (P97311 1-821): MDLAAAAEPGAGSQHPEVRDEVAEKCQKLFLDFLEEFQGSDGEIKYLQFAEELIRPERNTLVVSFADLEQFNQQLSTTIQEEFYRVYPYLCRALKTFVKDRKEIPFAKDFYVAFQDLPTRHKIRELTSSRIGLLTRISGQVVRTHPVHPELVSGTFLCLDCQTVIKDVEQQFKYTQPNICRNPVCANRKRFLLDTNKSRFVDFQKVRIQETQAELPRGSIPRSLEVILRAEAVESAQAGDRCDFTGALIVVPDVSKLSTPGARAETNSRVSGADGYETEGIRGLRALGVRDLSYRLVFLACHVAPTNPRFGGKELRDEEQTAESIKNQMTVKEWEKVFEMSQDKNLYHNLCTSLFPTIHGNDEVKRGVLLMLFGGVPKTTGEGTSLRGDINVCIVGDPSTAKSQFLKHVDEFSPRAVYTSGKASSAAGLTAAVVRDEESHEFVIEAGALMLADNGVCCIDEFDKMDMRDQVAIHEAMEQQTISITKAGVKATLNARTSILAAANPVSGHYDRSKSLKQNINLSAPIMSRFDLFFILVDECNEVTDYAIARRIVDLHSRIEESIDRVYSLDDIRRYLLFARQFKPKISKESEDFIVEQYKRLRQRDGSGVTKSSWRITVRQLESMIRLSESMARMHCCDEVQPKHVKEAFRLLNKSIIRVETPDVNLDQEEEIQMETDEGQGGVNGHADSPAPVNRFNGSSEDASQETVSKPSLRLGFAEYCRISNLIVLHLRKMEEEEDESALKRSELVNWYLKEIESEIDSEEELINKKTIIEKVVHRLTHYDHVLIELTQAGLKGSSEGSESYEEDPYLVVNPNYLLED

[4] = target: T4, AEA-DA lipid probe targets in Neuro2a cells (Mus musculus, UniProt Q8BGC4)
T4 sequence (Q8BGC4 1-377): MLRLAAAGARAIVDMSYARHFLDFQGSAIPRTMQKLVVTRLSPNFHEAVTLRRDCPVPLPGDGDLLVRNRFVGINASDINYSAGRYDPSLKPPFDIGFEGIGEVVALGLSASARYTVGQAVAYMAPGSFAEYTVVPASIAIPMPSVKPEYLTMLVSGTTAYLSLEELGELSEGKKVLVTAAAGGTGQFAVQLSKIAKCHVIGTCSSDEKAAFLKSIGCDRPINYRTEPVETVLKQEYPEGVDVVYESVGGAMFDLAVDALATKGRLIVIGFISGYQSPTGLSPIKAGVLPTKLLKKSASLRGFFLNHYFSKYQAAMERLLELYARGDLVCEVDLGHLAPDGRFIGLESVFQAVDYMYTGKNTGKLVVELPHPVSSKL

[5] = target: T5, AEA-DA lipid probe targets in Neuro2a cells (Mus musculus, UniProt Q8BKE6)
T5 sequence (Q8BKE6 1-462): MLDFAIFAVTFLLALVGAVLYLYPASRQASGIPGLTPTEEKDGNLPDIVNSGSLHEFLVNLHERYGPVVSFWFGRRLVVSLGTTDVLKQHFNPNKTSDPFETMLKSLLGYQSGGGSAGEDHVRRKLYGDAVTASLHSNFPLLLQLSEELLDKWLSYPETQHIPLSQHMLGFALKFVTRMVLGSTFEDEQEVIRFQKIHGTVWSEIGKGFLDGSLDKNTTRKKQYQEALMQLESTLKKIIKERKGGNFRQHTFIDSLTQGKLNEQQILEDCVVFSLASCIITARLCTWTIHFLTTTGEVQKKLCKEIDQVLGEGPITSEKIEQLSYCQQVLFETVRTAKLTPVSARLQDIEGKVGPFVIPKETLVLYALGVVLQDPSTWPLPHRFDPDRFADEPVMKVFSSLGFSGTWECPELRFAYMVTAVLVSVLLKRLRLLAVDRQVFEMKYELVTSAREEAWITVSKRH

## CCCCC/C=C\C/C=C\C/C=C\C/C=C\CCCC(=O)NCCO [AEA, anandamide, reference compound]
[1]; competitor 200 μM
  SILAC ratio Idh2: 1.2
[2]; competitor 200 μM
  SILAC ratio Lrrc59: 1.6
[3]; competitor 200 μM
  SILAC ratio Mcm6: 1.3
[4]; competitor 200 μM
  SILAC ratio, Zadh2: 4.8

## O=C(/C=C/c1cccnc1)NCCCCC1CCN(C(=O)c2ccccc2)CC1 [FK-866, reference compound]
[1]; competitor 25 μM
  SILAC ratio Idh2: 1.2
[2]; competitor 25 μM
  SILAC ratio Lrrc59: 1.2
[5]; competitor 25 μM
  SILAC ratio, Cyp20a1: 1.1
[3]; competitor 25 μM
  SILAC ratio Mcm6: 1.1
[4]; competitor 25 μM
  SILAC ratio, Zadh2: 12.6

## CN1CCN(C(=O)c2c(-c3ccccc3)c3cc([N+](=O)[O-])ccc3n2C)CC1 [KML110, (1-Methyl-5-nitro-3-phenyl-1H-indol-2-yl)(4-methylpiperazin-1-yl)methanone]
[1]; competitor 25 μM
  SILAC ratio Idh2: 1.3
[2]; competitor 25 μM
  SILAC ratio Lrrc59: 1.3
[5]; competitor 25 μM
  SILAC ratio, Cyp20a1: 1.4
[3]; competitor 25 μM
  SILAC ratio Mcm6: 2.0
[4]; competitor 25 μM
  SILAC ratio, Zadh2: 1.5

## CN1CCN(C(=O)c2[nH]c3ccc([N+](=O)[O-])cc3c2-c2ccccc2)CC1 [MJN228, (4-Methylpiperazin-1-yl)(5-nitro-3-phenyl-1H-indol-2-yl)methanone]
[1]; competitor 10 μM
  SILAC ratio Idh2: 1.3
[1]; competitor 25 μM
  SILAC ratio Idh2: 1.4
[1]; competitor 50 μM
  SILAC ratio Idh2: 1.6
[1]; competitor 100 μM
  SILAC ratio Idh2: 1.6
[2]; competitor 10 μM
  SILAC ratio Lrrc59: 1.3
[2]; competitor 25 μM
  SILAC ratio Lrrc59: 1.5
[2]; competitor 50 μM
  SILAC ratio Lrrc59: 1.5
[2]; competitor 100 μM
  SILAC ratio Lrrc59: 2.0
[5]; competitor 10 μM
  SILAC ratio, Cyp20a1: 1.2
[5]; competitor 25 μM
  SILAC ratio, Cyp20a1: 1.3
[5]; competitor 50 μM
  SILAC ratio, Cyp20a1: 1.2
[5]; competitor 100 μM
  SILAC ratio, Cyp20a1: 1.6
[3]; competitor 10 μM
  SILAC ratio Mcm6: 1.2
[3]; competitor 25 μM
  SILAC ratio Mcm6: 1.4
[3]; competitor 50 μM
  SILAC ratio Mcm6: 1.0
[3]; competitor 100 μM
  SILAC ratio Mcm6: 1.6
[4]; competitor 10 μM
  SILAC ratio, Zadh2: 1.4
[4]; competitor 25 μM
  SILAC ratio, Zadh2: 1.5
[4]; competitor 50 μM
  SILAC ratio, Zadh2: 2.3
[4]; competitor 100 μM
  SILAC ratio, Zadh2: 6.0

## C=CCN(C)CCCCCCOc1ccc(C(=O)c2ccc(Br)cc2)c(F)c1 [Ro 48-8071, reference compound]
[1]; competitor 25 μM
  SILAC ratio Idh2: 0.9
[2]; competitor 25 μM
  SILAC ratio Lrrc59: 1.2
[5]; competitor 25 μM
  SILAC ratio, Cyp20a1: 1.1
[3]; competitor 25 μM
  SILAC ratio Mcm6: 0.8
[4]; competitor 25 μM
  SILAC ratio, Zadh2: 1.0
